Laboratory results: patent US20110160121A1, “UNACYLATED GHRELIN AND ANALOGS AS THERAPEUTIC AGENTS FOR VASCULAR REMODELING IN DIABETIC PATIENTS AND TREATMENT OF CARDIOVASCULAR DISEASE” (ALIZE PHARMA SAS, priority 2008, published 2011)
Where no end group is shown, it is not given here.

What was measured:
CAC [1] = assay: CAC mobilization assay in diabetic mice (NOD/SCID, ob/ob); format: in vivo, mouse; conditions: FIG. 4B
Protocol: To further confirm data obtained by treating patients and healthy controls with UAG, two different mouse models of diabetes were used. NOD/SCID mice and ob/ob mice were treated for different time intervals with saline or UAG. The person skilled in the art will be familiar with the NOD/SCID mice and ob/ob mice models.
After treatment, cells were recovered, assayed by FACS analysis, counted and cultured. […] Black lines refer to preimmune IgG used as negative control and grey lines refer to surface marker expression. Similar results were obtained when CAC from untreated diabetic mice as well as untreated or treated wild-type mice were analyzed (data not shown).
Diabetic and control mice—Mice were divided in four groups. The plasma glucose and insulin determination for each group are reported. Sixteen 6 weeks old ob/ob mice (blood glucose, 600±45 mg/dL, insulin, 5.5±0.9 ng/ml); sixteen C56BL6/J wild type mice (blood glucose, 150±18.2 mg/dL, insulin, 1±0.05 ng/ml); ten 7 weeks old NOD/SCID mice (blood glucose, 164±12.9 mg/dL, insulin 1.2±.0.12 ng/ml); ten 17 weeks old NOD/SCID mice (blood glucose, 536±36.3 mg/dL, insulin 4.85±0.74 ng/ml). Animal procedures conformed to the Guide for Care and Use of […] (National Institutes of Health publication no. […], revised 1985).
Mobilization assay—Mice were treated for 12 hours with UAG or saline. CAC recovered and purified as above described, were put in culture and counted by three independent investigators. The technical ratio of CAC was calculated by comparing the numbers of CAC/μL of blood drawn from left ventricular.

CAC membranes = assay: Saturation binding experiment on CAC membranes (Scatchard analysis); design: species or system human
CAC [2] = assay: Expansion (S phase) of CAC recovered from treated patients, cultured with IL-3; format: in vivo, human; conditions: cells recovered from treated diabetic patients; FIG. 3C
Protocol: To confirm their vascular features, the cells recovered from patients and controls were cultured with IL-3; which is able to induce expansion and arterial morphogenesis of CD45^+ cells derived from both peripheral blood and BM (Ref. 28).
Flow Cytometry—To analyze CAC cell-cycle progression, cells recovered from diabetic, healthy subjects, NOD/SCID, ob/ob and wt mice, were cultured in EBM-2 supplemented with IL-3 (10 ng/ml), FACS analysis was performed as previously described (Ref. 20). Cell surface molecules were evaluated by flow cytometry as previously described (Ref. 24). Frequency of marker-positive cells is expressed as mean±standard deviation (SD).

[3] = Scatchard analysis, CAC membranes

radioligand concentration at maximum specific binding (saturable) (CAC membranes; CAC membranes, FIG. 5B): 2 nM | Bmax (CAC membranes; [3]): 10.7 fmol/mg membrane protein | Hill coefficient (CAC membranes; [3]): ~1 | Kd (CAC membranes; Scatchard analysis, single class of binding sites on CAC): 0.48 nM
Substance: 1-NH2Gly-Ser-Ser-Phe-Leu-Ser-Pro-Glu-His-Gln-Arg-Val-Gln-Gln-Arg-Lys-Glu-Ser-Lys-Lys-Pro-Pro-Ala-Lys-Leu-Gln-Pro-Arg-28 (H-GSSFLSPEHQRVQQRKESKKPPAKLQPR; ends and bridges not checked; listed as Homo sapiens) [UAG]
number of CAC relative to untreated wild type mice (CAC [1]; UAG-treated ob/ob mice vs untreated wild type mice): fully restores the number of CAC to normal physiological levels | percentage of recovered cells (CAC) (CAC [1]; diabetic NOD/SCID mice): increase the percentage of recovered cells | number of circulating CAC (CAC [1]; ob/ob mice): increased number of circulating CAC | cell expansion (cells in S phase) with IL-3 (CAC [2]): underwent cell expansion
